According to patent US20210236698A1, “ANTIMICROBIAL LOCKING SOLUTIONS COMPRISING TAURINAMIDE DERIVATIVES AND BIOLOGICALLY ACCEPTABLE SALTS AND ACIDS, WITH THE ADDITION OF SMALL CONCENTRATIONS OF HEPARIN” (ND Partners, LLC, priority 2004, published 2021):

Columns and labels:
[1] = Long term stability tests of taurolidine in solution; type: physicochemical; conditions: citric acid and sodium citrate in combination, versus solution prepared with PVP
Text: In addition, citric acid is a known antioxidant. […] The composition employed in the practice of the present invention preferably also contains a pharmacologically acceptable carrier solution, such as, water, Ringer's solution, or saline.

[2] = Biocidal effectiveness of taurolidine solution with citrate/citric acid pH adjustment; conditions: citrates and citric acid, pH of end solution in the vicinity of 5.2 to 6.5
Text: The concentration of taurolidine in such solutions is preferably in the range of from about 0.4 to about 5% by weight, depending upon the solubility of the compound. […] The approach creates a buffer system of citric acid/sodium citrate by adjustment of pH using sodium hydroxide. This buffer system also resists changes in the pH due to the oxidation of formaldehyde to formic acid.

red cells = type: cell-based
Text: The trial results by Dr Allon were examined by researchers in a group of experiments at the Naval Blood Laboratory and Boston University Medical School. […] However, the researchers were not able to determine exactly how their results were relevant to the findings in the University of Alabama clinical trial.

Molecule | precipitation of solid taurolidine and reaction products from solution [1] | biocidal effectiveness [2] | changes to blood in contact with solution (red cells)
O=S1(=O)CCN(CN2CCS(=O)(=O)NC2)CN1 [taurolidine] | prevents or severely slows down | substantially increases | morphological changes to red cells
heparin |  |  | did not happen
